ChEMBL document CHEMBL1201861, “Genomics of Drug Sensitity in Cancer screening data, Wellcome Trust Sanger Institute”
Counter-ions that a name gives are not always drawn.

What was measured:
Assay in all cases: cells
Assay type in all cases: functional, cell-based, Homo sapiens
[1] = system: NCI-H661; settings: Homo sapiens, NCI-H661;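 further: cell viability assay read-out, IC50 being the concentration that inhibits growth of the cells by half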
Description: SANGER: Inhibition of human NCI-H661 cell growth in a cell viability assay.

[2] = system: KYSE-180; settings: Homo sapiens, KYSE-180;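 further: growth inhibition of KYSE-180 cells, read out with a cell viability assay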
Description: SANGER: Inhibition of human KYSE-180 cell growth in a cell viability assay.

[3] = system: EFO-21; settings: Homo sapiens, EFO-21;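 further: growth inhibition of EFO-21 cells measured with a viability assay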
Description: SANGER: Inhibition of human EFO-21 cell growth in a cell viability assay.

[4] = system: COR-L23; settings: Homo sapiens, COR-L23;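 further: cell viability assay measuring how strongly compounds suppress growth of COR-L23 cells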
Description: SANGER: Inhibition of human COR-L23 cell growth in a cell viability assay.

[5] = system: EHEB; settings: Homo sapiens, EHEB;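 further: growth inhibition of human EHEB cells, read out with a cell viability assay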
Description: SANGER: Inhibition of human EHEB cell growth in a cell viability assay.

[6] = system: MKN-28; settings: Homo sapiens, MKN-28;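 further: cell viability assay read-out, IC50 reflects suppression of growth of human MKN-28 cells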
Description: SANGER: Inhibition of human MKN28 cell growth in a cell viability assay.

[7] = system: RPMI-7951; settings: Homo sapiens, RPMI-7951
Description: SANGER: Inhibition of human RPMI-7951 cell growth in a cell viability assay.

[8] = system: LN-405; settings: Homo sapiens, LN-405
Description: SANGER: Inhibition of human LN-405 cell growth in a cell viability assay.

[9] = system: MDA-MB-134-VI; settings: Homo sapiens, MDA-MB-134-VI
Description: SANGER: Inhibition of human MDA-MB-134-VI cell growth in a cell viability assay.

[10] = system: MC-CAR; settings: Homo sapiens, MC-CAR;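 further: growth inhibition of the human MC-CAR cell line, read out by a cell viability assay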
Description: SANGER: Inhibition of human MC-CAR cell growth in a cell viability assay.

[11] = system: HCC1937; settings: Homo sapiens, HCC1937;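 further: growth inhibition measured with a cell viability read-out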
Description: SANGER: Inhibition of human HCC1937 cell growth in a cell viability assay.

[12] = system: SW1573; settings: Homo sapiens, SW1573;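 further: growth inhibition of SW1573 cells, read out with a cell viability assay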
Description: SANGER: Inhibition of human SW1573 cell growth in a cell viability assay.

[13] = system: SW1783; settings: Homo sapiens, SW1783;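 further: cell growth inhibition measured with a viability assay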
Description: SANGER: Inhibition of human SW1783 cell growth in a cell viability assay.

[14] = system: 8505C; settings: Homo sapiens, 8505C
Description: SANGER: Inhibition of human 8505C cell growth in a cell viability assay.

[15] = system: MIA PaCa-2; settings: Homo sapiens, MIA PaCa-2;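 further: growth inhibition of MIA PaCa-2 cells, read out with a cell viability assay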
Description: SANGER: Inhibition of human MIA-PaCa-2 cell growth in a cell viability assay.

[16] = system: UO-31; settings: Homo sapiens, UO-31;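 further: cell viability assay measuring inhibition of cell growth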
Description: SANGER: Inhibition of human U031 cell growth in a cell viability assay.

[17] = system: AN3-CA; settings: Homo sapiens, AN3-CA;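 further: growth inhibition of human AN3-CA cells measured by a cell viability assay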
Description: SANGER: Inhibition of human AN3-CA cell growth in a cell viability assay.

[18] = system: NCI-H292; settings: Homo sapiens, NCI-H292;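 further: growth inhibition of NCI-H292 cells, read out with a cell viability assay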
Description: SANGER: Inhibition of human NCI-H292 cell growth in a cell viability assay.

[19] = system: Hs-578T; settings: Homo sapiens, Hs-578T
Description: SANGER: Inhibition of human Hs-578-T cell growth in a cell viability assay.

[20] = system: PFSK-1; settings: Homo sapiens, PFSK-1;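 further: cell viability assay measuring how strongly compounds suppress growth of human PFSK-1 cells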
Description: SANGER: Inhibition of human PFSK-1 cell growth in a cell viability assay.

[21] = system: CAPAN-1; settings: Homo sapiens, CAPAN-1;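 further: growth suppression of CAPAN-1 cells, read out by a cell viability assay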
Description: SANGER: Inhibition of human CAPAN-1 cell growth in a cell viability assay.

[22] = system: HuO-3N1; settings: Homo sapiens, HuO-3N1;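 further: cell viability readout used to measure how strongly compounds suppress proliferation of human HuO-3N1 cells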
Description: SANGER: Inhibition of human HuO-3N1 cell growth in a cell viability assay.

[23] = system: NCI-H522; settings: Homo sapiens, NCI-H522;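 further: cell viability assay measuring growth inhibition of human NCI-H522 cells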
Description: SANGER: Inhibition of human NCI-H522 cell growth in a cell viability assay.

[24] = system: RL; settings: Homo sapiens, RL
Description: SANGER: Inhibition of human RL cell growth in a cell viability assay.

[25] = system: SNU-423; settings: Homo sapiens, SNU-423
Description: SANGER: Inhibition of human SNU-423 cell growth in a cell viability assay.

[26] = system: NCI-H520; settings: Homo sapiens, NCI-H520;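 further: growth inhibition of NCI-H520 cells, measured by a cell viability assay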
Description: SANGER: Inhibition of human NCI-H520 cell growth in a cell viability assay.

[27] = system: COLO-792; settings: Homo sapiens, COLO-792
Description: SANGER: Inhibition of human COLO-792 cell growth in a cell viability assay.

[28] = system: MCF7; settings: Homo sapiens, MCF7;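 further: growth inhibition of human MCF7 cells, read out with a cell viability assay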
Description: SANGER: Inhibition of human MCF7 cell growth in a cell viability assay.

[29] = system: RERF-LC-MS; settings: Homo sapiens, RERF-LC-MS;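 further: growth inhibition of human RERF-LC-MS cells, read out by a cell viability assay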
Description: SANGER: Inhibition of human RERF-LC-MS cell growth in a cell viability assay.

[30] = system: SIG-M5; settings: Homo sapiens, SIG-M5;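 further: cell viability assay read-out, measuring how strongly growth of cultured human SIG-M5 cells is inhibited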
Description: SANGER: Inhibition of human SIG-M5 cell growth in a cell viability assay.

[31] = system: U-698-M; settings: Homo sapiens, U-698-M
Description: SANGER: Inhibition of human U-698-M cell growth in a cell viability assay.

[32] = system: SNU-449; settings: Homo sapiens, SNU-449
Description: SANGER: Inhibition of human SNU-449 cell growth in a cell viability assay.

[33] = system: RCM-1; settings: Homo sapiens, RCM-1;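 further: growth inhibition of the RCM-1 line, determined with a cell viability readout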
Description: SANGER: Inhibition of human RCM-1 cell growth in a cell viability assay.

[34] = system: CAMA-1; settings: Homo sapiens, CAMA-1;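 further: growth inhibition of CAMA-1 cells, read out with a cell viability assay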
Description: SANGER: Inhibition of human CAMA-1 cell growth in a cell viability assay.

[35] = system: SCC-9; settings: Homo sapiens, SCC-9;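 further: Read-out is a cell viability assay, with values giving inhibition of cell growth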
Description: SANGER: Inhibition of human SCC-9 cell growth in a cell viability assay.

[36] = system: HCT-116; settings: Homo sapiens, HCT-116
Description: SANGER: Inhibition of human HCT-116 cell growth in a cell viability assay.

[37] = system: NUGC-3; settings: Homo sapiens, NUGC-3;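 further: growth inhibition of human NUGC-3 cells, read out with a cell viability assay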
Description: SANGER: Inhibition of human NUGC-3 cell growth in a cell viability assay.

[38] = system: SW1417; settings: Homo sapiens, SW1417;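 further: growth inhibition of human SW1417 cells, read out with a cell viability assay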
Description: SANGER: Inhibition of human SW1417 cell growth in a cell viability assay.

[39] = system: HEC-1; settings: Homo sapiens, HEC-1;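 further: growth inhibition of the cell line, read out with a cell viability assay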
Description: SANGER: Inhibition of human HEC-1 cell growth in a cell viability assay.

[40] = system: SW-620; settings: Homo sapiens, SW-620;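 further: growth inhibition of human SW-620 cells, measured by a cell viability assay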
Description: SANGER: Inhibition of human SW620 cell growth in a cell viability assay.

[41] = system: SiHa; settings: Homo sapiens, SiHa;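 further: Viability-based readout of growth inhibition in SiHa cells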
Description: SANGER: Inhibition of human SiHa cell growth in a cell viability assay.

[42] = system: CHL-1; settings: Homo sapiens, CHL-1;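 further: cell growth inhibition, read out with a cell viability assay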
Description: SANGER: Inhibition of human CHL-1 cell growth in a cell viability assay.

[43] = system: A 172; settings: Homo sapiens, A 172;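 further: growth inhibition of A172 cells, measured with a cell viability readout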
Description: SANGER: Inhibition of human A172 cell growth in a cell viability assay.

[44] = system: C-33-A; settings: Homo sapiens, C-33-A;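 further: cell viability assay measuring growth inhibition of C-33-A cells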
Description: SANGER: Inhibition of human C-33-A cell growth in a cell viability assay.

[45] = system: SW756; settings: Homo sapiens, SW756;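 further: growth inhibition of human SW756 cells, read out with a cell viability assay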
Description: SANGER: Inhibition of human SW756 cell growth in a cell viability assay.

[46] = system: NCI-H2347; settings: Homo sapiens, NCI-H2347;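 further: growth inhibition of the cell line, read out with a cell viability assay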
Description: SANGER: Inhibition of human NCI-H2347 cell growth in a cell viability assay.

[47] = system: NCI-H187; settings: Homo sapiens, NCI-H187;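 further: growth inhibition of NCI-H187 cells, read out as cell viability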
Description: SANGER: Inhibition of human NCI-H187 cell growth in a cell viability assay.

[48] = system: NB1; settings: Homo sapiens, NB1;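 further: reduction of NB1 cell proliferation, read out with a viability assay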
Description: SANGER: Inhibition of human NB1 cell growth in a cell viability assay.

COC1=CC(c2cc3ccccc3[nH]2)=N/C1=C\c1[nH]c(C)cc1C [OBATOCLAX MESYLATE]
IC50 [1]: 1300 nM | IC50 [2]: 61.4 nM | IC50 [3]: 841 nM | IC50 [4]: 61.3 nM | IC50 [5]: 823 nM | IC50 [6]: 177 nM | IC50 [7]: 510 nM | IC50 [8]: 1390 nM | IC50 [9]: 4030 nM | IC50 [10]: 23.6 nM | IC50 [11]: 464 nM | IC50 [12]: 2020 nM | IC50 [13]: 193 nM | IC50 [14]: 30.4 nM | IC50 [15]: 233 nM | IC50 [16]: 814 nM | IC50 [17]: 156 nM | IC50 [18]: 176 nM | IC50 [19]: 183 nM | IC50 [20]: 1210 nM | IC50 [21]: 523 nM | IC50 [22]: 401 nM | IC50 [23]: 181 nM | IC50 [24]: > 16000 nM | IC50 [25]: 129 nM | IC50 [26]: 129 nM | IC50 [27]: 132 nM | IC50 [28]: < 62.5 nM | IC50 [29]: 1060 nM | IC50 [30]: < 62.5 nM | IC50 [31]: 94.1 nM | IC50 [32]: 208 nM | IC50 [33]: 572 nM | IC50 [34]: 436 nM | IC50 [35]: 1240 nM | IC50 [36]: 88 nM | IC50 [37]: 30.5 nM | IC50 [38]: < 62.5 nM | IC50 [39]: 36.8 nM | IC50 [40]: < 62.5 nM | IC50 [41]: 3120 nM | IC50 [42]: 48.6 nM | IC50 [43]: 887 nM | IC50 [44]: < 62.5 nM | IC50 [45]: 38.2 nM | IC50 [46]: 888 nM | IC50 [47]: 5930 nM | IC50 [48]: 279 nM

Cc1cc([N+](=O)[O-])ccc1NS(=O)(=O)c1cc(Cl)ccc1Cl
IC50 [1]: 2820 nM | IC50 [2]: 3130 nM | IC50 [3]: 11100 nM | IC50 [4]: 2630 nM | IC50 [5]: 9790 nM | IC50 [6]: 4370 nM | IC50 [7]: 29300 nM | IC50 [8]: 11900 nM | IC50 [9]: > 32000 nM | IC50 [10]: 8990 nM | IC50 [11]: 6270 nM | IC50 [12]: 9540 nM | IC50 [13]: 7150 nM | IC50 [14]: 2670 nM | IC50 [15]: 601 nM | IC50 [16]: 8660 nM | IC50 [17]: 1080 nM | IC50 [18]: 11300 nM | IC50 [19]: 11500 nM | IC50 [20]: 12400 nM | IC50 [21]: 2400 nM | IC50 [22]: 13400 nM | IC50 [23]: 1400 nM | IC50 [24]: > 32000 nM | IC50 [25]: 7170 nM | IC50 [26]: 6200 nM | IC50 [27]: 2010 nM | IC50 [28]: 2640 nM | IC50 [29]: 1490 nM | IC50 [30]: 3360 nM | IC50 [31]: 1810 nM | IC50 [32]: 5940 nM | IC50 [33]: 8760 nM | IC50 [34]: 911 nM | IC50 [35]: > 32000 nM | IC50 [36]: 3720 nM | IC50 [37]: 3650 nM | IC50 [38]: 11400 nM | IC50 [39]: 8240 nM | IC50 [40]: 3930 nM | IC50 [41]: 19700 nM | IC50 [42]: 2180 nM | IC50 [43]: 5910 nM | IC50 [44]: 2000 nM | IC50 [45]: 2970 nM | IC50 [46]: 5860 nM | IC50 [47]: 12300 nM | IC50 [48]: 8380 nM

N#Cc1c(O)c2c(-c3ccc(-c4ccccc4O)cc3)csc2[nH]c1=O
IC50 [1]: > 1020 nM | IC50 [2]: > 1020 nM | IC50 [3]: > 1020 nM | IC50 [4]: > 1020 nM | IC50 [5]: 63.3 nM | IC50 [6]: > 1020 nM | IC50 [7]: > 1020 nM | IC50 [8]: > 1020 nM | IC50 [9]: > 1020 nM | IC50 [10]: 172 nM | IC50 [11]: > 1020 nM | IC50 [12]: > 1020 nM | IC50 [13]: > 1020 nM | IC50 [14]: > 1020 nM | IC50 [15]: > 1020 nM | IC50 [16]: > 1020 nM | IC50 [17]: > 1020 nM | IC50 [18]: > 1020 nM | IC50 [19]: > 1020 nM | IC50 [20]: > 1020 nM | IC50 [21]: 256 nM | IC50 [22]: > 1020 nM | IC50 [23]: > 1020 nM | IC50 [24]: > 1020 nM | IC50 [25]: > 1020 nM | IC50 [26]: > 1020 nM | IC50 [27]: > 1020 nM | IC50 [28]: > 1020 nM | IC50 [29]: > 1020 nM | IC50 [30]: 7.86 nM | IC50 [31]: 219 nM | IC50 [32]: > 1020 nM | IC50 [33]: > 1020 nM | IC50 [34]: > 1020 nM | IC50 [35]: > 1020 nM | IC50 [36]: > 1020 nM | IC50 [37]: > 1020 nM | IC50 [38]: > 1020 nM | IC50 [39]: > 1020 nM | IC50 [40]: > 1020 nM | IC50 [41]: > 1020 nM | IC50 [42]: > 1020 nM | IC50 [43]: > 1020 nM | IC50 [44]: > 1020 nM | IC50 [45]: > 1020 nM | IC50 [46]: > 1020 nM | IC50 [47]: 545 nM | IC50 [48]: > 1020 nM
